Laboratory results taken from US4443626A, “2,3-Dihydro-indene derivatives” (Hisamitsu Pharmaceutical Co., Inc., priority 1982, dated 1984).

Tests used:
mice = assay: Test for acute toxicity on mice; format: in vivo; conditions: one week after the administration, dead/tested
Excerpt: Test for acute toxicity on mice
Groups each consisting of 6 male mice of ddY strain weighing between 22 and 26 g were used in this experiment.
Suspensions of the test compounds and indomethacin as the control in an 0.5% aqueous solution of tragacanth were orally administered respectively to the test animals, after which the test animals had been observed for a week to find the lethality thereof.

passive Arthus reaction = assay: Effect on passive Arthus reaction in rats (hind paw swelling); format: in vivo, rat (Wistar strain, male); conditions: Rattus norvegicus, po, 3 h, read-out: Swelling inhibiting ratio; for inhibition in vivo at 100 mg/kg: 100 mg/kg orally, one hour before induction, hind paw volume measured three hours after induction, anti BSA rabbit serum / BSA, relative to control group
Experimental: Effect on passive Arthus reaction in rats
The rats which had been fasted for 18 hours were sensitized by injecting 0.3 ml of a 10% solution of an anti BSA rabbit serum (precipitation titer, 32 times) to them at the tail vein. […] On the other hand, only the vehicle was administered to the remainder of the test animals. [formula]

O=C(O)CCCC1Cc2ccc(F)cc2C1=O (stereo not shown) [Example 1, 6-fluoro-1-oxo-2,3-dihydro-2-indene butyric acid]
Lethality (mice; 2,000 mg/kg orally): 1/6 | inhibition in vivo at 100 mg/kg (passive Arthus reaction): 26.7%

O=C(O)CCCC1Cc2ccc(Cl)cc2C1=O (stereo not shown) [Example 2, 6-chloro-1-oxo-2,3-dihydro-2-indene butyric acid]
Lethality (mice; 2,000 mg/kg orally): 2/6 | inhibition in vivo at 100 mg/kg (passive Arthus reaction): 37.7%

O=C(O)CCC1Cc2ccc(Cl)cc2C1=O (stereo not shown) [Example 3, 6-chloro-1-oxo-2,3-dihydro-2-indene propionic acid]
inhibition in vivo at 100 mg/kg (passive Arthus reaction): 13.7%

O=C(O)CCC1Cc2c(F)cccc2C1=O (stereo not shown) [Example 5, 4-fluoro-1-oxo-2,3-dihydro-2-indene propionic acid]
Lethality (mice; 2,000 mg/kg orally): 2/6 | inhibition in vivo at 100 mg/kg (passive Arthus reaction): 41.7%

O=C(O)CCC1Cc2ccc(F)cc2C1=O (stereo not shown) [Example 6, 6-fluoro-1-oxo-2,3-dihydro-2-indene propionic acid]
Lethality (mice; 500 mg/kg orally): 0/6 | Lethality (mice; 1,000 mg/kg orally): 0/6 | Lethality (mice; 2,000 mg/kg orally): 2/6 | inhibition in vivo at 100 mg/kg (passive Arthus reaction): 39.4%

O=C(O)CCC1Cc2cc(Cl)ccc2C1=O (stereo not shown) [Example 8, 5-chloro-1-oxo-2,3-dihydro-2-indene propionic acid]
inhibition in vivo at 100 mg/kg (passive Arthus reaction): 17.5%

O=C(O)CCCC1Cc2c(Cl)cccc2C1=O (stereo not shown) [Example 11, 4-chloro-1-oxo-2,3-dihydro-2-indene butyric acid]
inhibition in vivo at 100 mg/kg (passive Arthus reaction): 13.9%

O=C(O)CCCC1Cc2c(Cl)cc(Cl)cc2C1=O (stereo not shown) [Example 13, 4,6-dichloro-1-oxo-2,3-dihydro-2-indene butyric acid]
Lethality (mice; 2,000 mg/kg orally): 1/6 | inhibition in vivo at 100 mg/kg (passive Arthus reaction): 22.5%

O=C(O)CCCCC1Cc2c(Cl)cccc2C1=O (stereo not shown) [Example 14, 4-chloro-1-oxo-2,3-dihydro-2-indene valeric acid]
Lethality (mice; 2,000 mg/kg orally): 0/6 | inhibition in vivo at 100 mg/kg (passive Arthus reaction): 18.6%

O=C(O)CCCCC1Cc2cc(Cl)ccc2C1=O (stereo not shown) [Example 15, 5-chloro-1-oxo-2,3-dihydro-2-indene valeric acid]
Lethality (mice; 2,000 mg/kg orally): 0/6 | inhibition in vivo at 100 mg/kg (passive Arthus reaction): 35.3%

O=C(O)CCCCC1Cc2ccc(Cl)cc2C1=O (stereo not shown) [Example 16, 6-chloro-1-oxo-2,3-dihydro-2-indene valeric acid]
inhibition in vivo at 100 mg/kg (passive Arthus reaction): 16.2%

COc1ccc2c(c1)c(CC(=O)O)c(C)n2C(=O)c1ccc(Cl)cc1 [Indomethacin, indomethacin, reference compound]
Lethality (mice; 50 mg/kg orally): 6/6 | inhibition in vivo at 5 mg/kg (passive Arthus reaction): 8.1%
